The record followed here is patent US8722937B2 (priority 2006, dated 2014).

For assay [1], the system named is S. aureus (ATCC 25923). The assay is described as follows: microbe, parasite or virus in culture. The class given is cell-based, Staphylococcus aureus. The conditions noted are these: 24 h, 37° C.; for zone of inhibition at 20 µg/disc: Staphylococcus aureus, ATCC25923.
Assay [2] deals with methicillin-resistant S. aureus (MRSA). The assay is described as follows: microbe, parasite or virus in culture. The format is cell-based, Staphylococcus aureus. The settings on record: 24 h, 37° C.; for zone of inhibition at 20 µg/disc: Staphylococcus aureus, MRSA, read-out: Average zones of growth inhibition of MRSA (USF-652-659, 919-920).
The subject of assay [3] is S. aureus (ATCC 25923). The assay is described as follows: Agar dilution minimum inhibitory concentration (MIC), S. aureus. The class given is cell-based, Staphylococcus aureus. The conditions noted are these: serial dilution in 24-well plate, NCCLS; for MIC: Staphylococcus aureus, ATCC25923, read-out: Minimum inhibitory concentration (MIC) against S. aureus (ATCC 25923). In general terms: Agar dilution tests growth on a series of plates holding different concentrations.

In assay [4] the test system is B. anthracis (USF 848). The assay is described as follows: microbe, parasite or virus in culture. The format is cell-based, Bacillus anthracis. The conditions noted are these: 24 h, 37° C.; for zone of inhibition at 20 µg/disc: Bacillus anthracis.
The subject of assay [5] is B. anthracis (USF 848). The assay is described as follows: microbe, parasite or virus in culture. The format is cell-based, Bacillus anthracis. The settings on record: for MIC: Bacillus anthracis, read-out: Minimum inhibitory concentration (MIC) against B. anthracis (USF 848).
Setting [6] is: read-out: Zones of growth inhibition of S. aureus (ATCC 25923), areas of partial inhibition.
Setting [7] is: read-out: Zones of growth inhibition of S. aureus (ATCC 25923).
[8] abbreviates: read-out: Zones of growth inhibition of B. anthracis (USF 848), areas of partial growth inhibition.
Setting [9] is: read-out: Zones of growth inhibition of B. anthracis (USF 848).

Converted amounts (≈) assume the structure as drawn. Where two headings read alike, the source gives them in different places.

In the case of `CCSSCCNC(=O)CCNC(=O)[C@H](O)C(C)(C)COP(=O)(O)OP(=O)(O)OC[C@H]1O[C@@H](n2cnc3c(N)ncnc32)[C@H](O)[C@@H]1OP(=O)(O)O` [Compound 25b], the “Zones of growth inhibition, S. aureus” value with S. aureus (ATCC 25923) [1] amounted to 0 mm. Also, the “Zones of growth inhibition, MRSA” value in assay [2] is on record as 0 mm.

Take `CSS(C)(=O)=O` [Compound 26a, reference compound]: the “Zones of growth inhibition, S. aureus” value with S. aureus (ATCC 25923) [1] is recorded as 22 mm. Also, the “Zones of growth inhibition, MRSA” value in assay [2] came out at 23 mm.

For the compound `CCSS(C)(=O)=O` [Compound 26b], the “Zones of growth inhibition, S. aureus” value in the assay with S. aureus (ATCC 25923) [1] is given as 19 mm. Further, the “Zones of growth inhibition, MRSA” value in assay [2] is on record as 20 mm.

On to `CCC(C)SS(C)(=O)=O` (centres unmarked) [Compound 26c], for which the “Zones of growth inhibition, S. aureus” value in the assay with S. aureus (ATCC 25923) [1] was found to be 23 mm. For the same compound, the “Zones of growth inhibition, MRSA” value in assay [2] was 23 mm.

Regarding `CSSc1ccc(F)c(F)c1` [Compound 33a, 3,4-Difluorophenyl Methyl Disulfide], the zone of inhibition at 20 µg/disc with S. aureus (ATCC 25923) [1] (setting [6]) was 11 mm.

Regarding `CCSSc1ccc(F)c(F)c1` [Compound 33b, 3,4-Difluorophenyl Ethyl Disulfide], in the assay with S. aureus (ATCC 25923) [1] (setting [6]), the zone of inhibition at 20 µg/disc came to 9 mm.

`CC(C)SSc1ccc(F)c(F)c1` [Compound 33c, 3,4-Difluorophenyl Isopropyl Disulfide]: the zone of inhibition at 20 µg/disc in the assay on S. aureus (ATCC 25923) [1] (setting [6]) was 9 mm.

`CCC(C)SSc1ccc(F)c(F)c1` (centres unmarked) [Compound 33d, Sec-Butyl 3,4-Difluorophenyl Disulfide]: in the assay with S. aureus (ATCC 25923) [1] (setting [6]), the zone of inhibition at 20 µg/disc came out at 9 mm.

With `CCCSSc1ccc(F)c(F)c1` [Compound 33e, 3,4-Difluorophenyl n-propyl Disulfide], in the assay on S. aureus (ATCC 25923) [1] (setting [7]), the zone of inhibition at 20 µg/disc worked out at 0 mm.

For `CCCCSSc1ccc(F)c(F)c1` [Compound 33f, n-Butyl 3,4-difluorophenyl Disulfide], in the assay on S. aureus (ATCC 25923) [1] (setting [6]), the zone of inhibition at 20 µg/disc is 10 mm.

On to `CCSSc1ccccc1Cl` [Compound 34b, o-Chlorophenyl Ethyl Disulfide], for which the zone of inhibition at 20 µg/disc in the assay on S. aureus (ATCC 25923) [1] (setting [6]) came out at 9 mm.

Consider `CC(C)SSc1ccccc1Cl` [Compound 34c, o-Chlorophenyl Isopropyl Disulfide], for which the zone of inhibition at 20 µg/disc in the assay with S. aureus (ATCC 25923) [1] (setting [6]) came out at 11 mm.

`CCC(C)SSc1ccccc1Cl` (centres unmarked) [Compound 34d, s-Butyl o-chlorophenyl Disulfide]: the zone of inhibition at 20 µg/disc in the assay on S. aureus (ATCC 25923) [1] (setting [6]) was 10 mm.

As for `CCCSSc1ccccc1Cl` [Compound 34e, o-Chlorophenyl n-propyl Disulfide], the zone of inhibition at 20 µg/disc with S. aureus (ATCC 25923) [1] (setting [7]) was 0 mm.

With `CCCCSSc1ccccc1Cl` [Compound 34f, n-Butyl o-chlorophenyl Disulfide], the zone of inhibition at 20 µg/disc in the assay on S. aureus (ATCC 25923) [1] (setting [6]) is 9 mm.

Regarding `CSSc1ccc(C)c(C)c1` [Compound 35a, 3,4-Dimethylphenyl Methyl Disulfide], the zone of inhibition at 20 µg/disc with S. aureus (ATCC 25923) [1] (setting [6]) is 10 mm.

With `CCSSc1ccc(C)c(C)c1` [Compound 35b, 3,4-Dimethylphenyl ethyl disulfide], in the assay on S. aureus (ATCC 25923) [1] (setting [7]), the zone of inhibition at 20 µg/disc stood at 0 mm.

Take `Cc1ccc(SSC(C)C)cc1C` [Compound 35c, 3,4-Dimethylphenyl Isopropyl Disulfide]: the zone of inhibition at 20 µg/disc with S. aureus (ATCC 25923) [1] (setting [6]) worked out at 9 mm.

For the compound `CCC(C)SSc1ccc(C)c(C)c1` (centres unmarked) [Compound 35d, sec-Butyl 3,4-dimethylphenyl Disulfide], in the assay on S. aureus (ATCC 25923) [1] (setting [7]), the zone of inhibition at 20 µg/disc came to 0 mm.

Regarding `CCCSSc1ccc(C)c(C)c1` [Compound 35e, 3,4-Dimethylphenyl n-propyl Disulfide], the zone of inhibition at 20 µg/disc in the assay with S. aureus (ATCC 25923) [1] (setting [7]) turned out to be 0 mm.

Turning to `CCCCSSc1ccc(C)c(C)c1` [Compound 35f, n-Butyl 3,4-dimethylphenyl Disulfide], the zone of inhibition at 20 µg/disc with S. aureus (ATCC 25923) [1] (setting [7]) was 0 mm.

With `CCOc1cccc(SSC)c1` [Compound 36a, m-Ethoxyphenyl Methyl Disulfide], the zone of inhibition at 20 µg/disc in the assay with S. aureus (ATCC 25923) [1] (setting [6]) is 9 mm.

As to `CSSc1ccc(N)cc1` [Compound 39a, p-Aminophenyl Methyl Disulfide], the zone of inhibition at 20 µg/disc with S. aureus (ATCC 25923) [1] (setting [7]) stood at 0 mm.

As to `CSSc1ccccc1CO` [Compound 41a, o-(Hydroxymethyl)phenyl Methyl Disulfide], in the assay with S. aureus (ATCC 25923) [1] (setting [6]), the zone of inhibition at 20 µg/disc came to 14 mm. Besides, the MIC with S. aureus (ATCC 25923) [3] turned out to be 64 µg/mL (≈ 344 µM).

In the case of `CSSc1ccccn1` [Compound 42a, Methyl 2-pyridinyl Disulfide], the “activity against S. aureus (ATCC 25923) in Kirby-Bauer assay, in words” value with S. aureus (ATCC 25923) [1] is given as “some activity”. Moreover, the zone of inhibition at 20 µg/disc was determined as 16 mm with S. aureus (ATCC 25923) [1] (setting [7]) and 23 mm in the assay on S. aureus (ATCC 25923) [1] (setting [6]). For the same compound, in the assay with S. aureus (ATCC 25923) [3], the MIC stood at 64 µg/mL (≈ 407 µM).

As to `CCSSc1ccccn1` [Compound 42b, Ethyl 2-pyridinyl Disulfide], in the assay on S. aureus (ATCC 25923) [1], the “activity against S. aureus (ATCC 25923) in Kirby-Bauer assay, in words” value is recorded as “some activity”. For the same compound, the zone of inhibition at 20 µg/disc in the assay with S. aureus (ATCC 25923) [1] (setting [6]) was 21 mm; in the assay on B. anthracis (USF 848) [4] (setting [8]), 27 mm. In addition, the MIC in the assay on S. aureus (ATCC 25923) [3] is 32 µg/mL (≈ 187 µM).

For the compound `CC(C)SSc1ccccn1` [Compound 42c, Isopropyl 2-pyridinyl Disulfide], the zone of inhibition at 20 µg/disc in the assay with S. aureus (ATCC 25923) [1] (setting [7]) worked out at 0 mm; in the assay on B. anthracis (USF 848) [4] (setting [8]), 16 mm.

With `CCC(C)SSc1ccccn1` (centres unmarked) [Compound 42d, s-Butyl 2-pyridinyl Disulfide], the zone of inhibition at 20 µg/disc is 0 mm in the assay on S. aureus (ATCC 25923) [1] (setting [7]) and 17 mm with B. anthracis (USF 848) [4] (setting [8]).

`CCSSc1cccc([N+](=O)[O-])c1` [Compound 43b, Ethyl m-nitrophenyl Disulfide]: the zone of inhibition at 20 µg/disc turned out to be 45 mm with S. aureus (ATCC 25923) [1] (setting [6]), 12 mm in assay [2], 32 mm in the assay on B. anthracis (USF 848) [4] (setting [9]) and 40 mm in the assay on B. anthracis (USF 848) [4] (setting [8]). The figures for the MIC with S. aureus (ATCC 25923) [3] and in the assay on B. anthracis (USF 848) [5] were 48 µg/mL (≈ 223 µM) and 0.38 µg/mL (≈ 1.76 µM), respectively.

Consider `CC(C)SSc1cccc([N+](=O)[O-])c1` [Compound 43c, Isopropyl m-nitrophenyl Disulfide], for which the “Zones of growth inhibition of S. aureus (ATCC 25923)” value in the assay with S. aureus (ATCC 25923) [1] is listed as 55 (85) mm. Moreover, the “Zones of growth inhibition of S. aureus (ATCC 25923), areas of partial inhibition” value (“Zones … of partial inhibition” for short) in the assay with S. aureus (ATCC 25923) [1] is listed as 55 (85) mm. Moreover, the zone of inhibition at 20 µg/disc stood at 55 mm with S. aureus (ATCC 25923) [1] (setting [7]); 85 mm with S. aureus (ATCC 25923) [1] (setting [6]); 38 mm in assay [2]; 30 mm in the assay with B. anthracis (USF 848) [4] (setting [9]); 54 mm with B. anthracis (USF 848) [4] (setting [8]). Further, the MIC in the assay with S. aureus (ATCC 25923) [3] is 0.4 µg/mL (≈ 1.74 µM); in the assay with B. anthracis (USF 848) [5], less than 0.125 µg/mL.

`CCSSc1ccccc1[N+](=O)[O-]` [Compound 44b]: in the assay with S. aureus (ATCC 25923) [1], the “Zones of growth inhibition of S. aureus (ATCC 25923)” value is recorded as 29(40) mm and the “Zones … of partial inhibition” value was 29(40) mm. In the assay on S. aureus (ATCC 25923) [3], the “Minimum inhibitory concentration (MIC) against S. aureus (ATCC 25923)” value came to 16 µg/mL (≈ 74.3 µM). For the same compound, in the assay with B. anthracis (USF 848) [4], the “Zones of growth inhibition of B. anthracis (USF 848)” value is reported as 35 mm. Besides, in the assay with B. anthracis (USF 848) [5], the “Minimum inhibitory concentration (MIC) against B. anthracis (USF 848)” value turned out to be 0.63 µg/mL (≈ 2.93 µM).

As for `CCC(C)SSc1ccccc1[N+](=O)[O-]` (centres unmarked) [Compound 44d, s-Butyl o-nitrophenyl Disulfide], the “Zones of growth inhibition of S. aureus (ATCC 25923)” value with S. aureus (ATCC 25923) [1] is listed as 15 (24) mm. In the assay on S. aureus (ATCC 25923) [1], the “Zones … of partial inhibition” value is recorded as 15 (24) mm. Further, the zone of inhibition at 20 µg/disc was determined as 15 mm with S. aureus (ATCC 25923) [1] (setting [7]), 24 mm with S. aureus (ATCC 25923) [1] (setting [6]) and 23 mm with B. anthracis (USF 848) [4] (setting [9]). The values for the MIC with S. aureus (ATCC 25923) [3] and in the assay with B. anthracis (USF 848) [5] were 16 µg/mL (≈ 65.7 µM) and 0.75 µg/mL (≈ 3.08 µM), respectively.

Consider `CSSc1ccc(NC(C)=O)cc1` [Compound 46a, p-Acetamidophenyl Methyl Disulfide], for which the values for the zone of inhibition at 20 µg/disc in the assay with S. aureus (ATCC 25923) [1] (setting [6]) and with B. anthracis (USF 848) [4] (setting [8]) were 20 mm and 23 mm, respectively. Besides, the MIC with B. anthracis (USF 848) [5] is 8 µg/mL (≈ 37.5 µM).
